Drawing on PMC2248166, “Quantitative peptide binding motifs for 19 human and mouse MHC class I molecules derived using positional scanning combinatorial peptide libraries” (Immunome Research, 2008), this text covers IC50 for 21 compounds.

Where a SMILES comes first, the peptide text is derived from it.

In this experiment the target is HLA B*1503 (Homo sapiens, UniProt P01889, A329T/A93T/A95T/C349S/D201E/D98Y/E187L/E204Q/K202T/N87E/Q94N/R155S/R180L/S121R/S35A/V306I/V36M/Y140S/Y91S). Nature of the experiment: biochemical. Format: binding.
One may read the IC50 as the concentration at which inhibition is half-maximal. Read a low IC50 as greater potency. On to `CC[C@H](C)[C@H](N)C(=O)N[C@@H](CCCCN)C(=O)N[C@@H](Cc1ccccc1)C(=O)N[C@@H](C)C(=O)N[C@@H](C)C(=O)NCC(=O)N[C@H](C(=O)N[C@H](C(=O)N[C@H](C(=O)O)[C@@H](C)CC)[C@@H](C)CC)[C@@H](C)CC` [3102.1198] (H-IKFAAGIII-OH), for which half-maximal inhibition (IC50) required 16 nM. For the compound `CC[C@H](C)[C@H](NC(=O)[C@@H](NC(=O)[C@H](Cc1ccccc1)NC(=O)[C@H](CCSC)NC(=O)[C@@H](NC(=O)[C@H](CCCCN)NC(=O)[C@@H](N)[C@@H](C)O)C(C)C)C(C)C)C(=O)N[C@@H](CCCNC(=N)N)C(=O)N[C@@H](Cc1ccccc1)C(=O)O` [3102.1199] (H-TKVMFVIRF-OH), 31 nM corresponded to half-maximal inhibition (IC50). Under `CC[C@H](C)[C@H](NC(=O)[C@H](CCCCN)NC(=O)[C@@H](N)CCSC)C(=O)N[C@H](C(=O)N[C@@H](CCCNC(=N)N)C(=O)N1CCC[C@H]1C(=O)N[C@@H](CCCNC(=N)N)C(=O)N[C@@H](Cc1c[nH]cn1)C(=O)N[C@@H](Cc1ccccc1)C(=O)O)[C@@H](C)O` [3102.1200] (H-MKITRPRHF-OH) stands 1 nM; under `CC[C@H](C)[C@H](N)C(=O)N[C@@H](CCC(=O)O)C(=O)N[C@H](C(=O)N[C@@H](CO)C(=O)N[C@@H](CO)C(=O)N[C@@H](CC(=O)O)C(=O)N[C@H](C(=O)N[C@@H](CO)C(=O)N[C@@H](Cc1ccccc1)C(=O)O)[C@@H](C)CC)C(C)C` [3102.1201] (H-IEVSSDISF-OH), 9.7 nM. For the compound `CC[C@H](C)[C@H](NC(=O)[C@H](Cc1c[nH]cn1)NC(=O)[C@H](CC(N)=O)NC(=O)[C@H](CCCCN)NC(=O)[C@@H](N)CCCNC(=N)N)C(=O)N[C@@H](Cc1ccc(O)cc1)C(=O)N[C@@H](CC(N)=O)C(=O)N[C@@H](CO)C(=O)N[C@@H](Cc1ccccc1)C(=O)O` [3102.1203] (H-RKNHIYNSF-OH), the IC50 came to 0.13 nM. Under `CC(C)C[C@H](NC(=O)[C@@H](N)Cc1ccccc1)C(=O)N[C@@H](CO)C(=O)N[C@@H](CC(N)=O)C(=O)N[C@@H](CS)C(=O)N[C@@H](CCC(=O)O)C(=O)N[C@@H](CCCCN)C(=O)N[C@@H](CCC(N)=O)C(=O)N[C@@H](Cc1ccccc1)C(=O)O` [3102.1206] (H-FLSNCEKQF-OH) stands 21 nM; under `CC[C@H](C)[C@H](NC(=O)[C@H](CO)NC(=O)[C@@H](NC(=O)[C@H](Cc1ccccc1)NC(=O)CNC(=O)[C@@H](NC(=O)[C@@H](NC(=O)[C@H](CCCCN)NC(=O)[C@@H](N)CCCCN)C(C)C)[C@@H](C)CC)C(C)C)C(=O)O` [3102.1208] (H-KKVIGFVSI-OH), 7.5 nM. Next, `CC[C@H](C)[C@H](N)C(=O)N[C@@H](CCC(N)=O)C(=O)N[C@@H](CCCNC(=N)N)C(=O)N[C@H](C(=O)N[C@@H](Cc1ccc(O)cc1)C(=O)N[C@@H](CO)C(=O)N[C@@H](CO)C(=O)N[C@@H](CO)C(=O)N[C@H](C(=O)O)[C@@H](C)CC)[C@@H](C)O` [3102.1209] (H-IQRTYSSSI-OH): 0.83 nM; `CSCC[C@H](NC(=O)[C@H](CCSC)NC(=O)[C@H](CCC(=O)O)NC(=O)[C@H](C)N)C(=O)N[C@@H](C)C(=O)N1CCC[C@H]1C(=O)N[C@@H](CO)C(=O)N[C@@H](CCSC)C(=O)N[C@@H](Cc1ccccc1)C(=O)O` [3102.1211] (H-AEMMAPSMF-OH): 17 nM. `CC(C)C[C@H](N)C(=O)N[C@@H](CCC(=O)O)C(=O)N[C@@H](Cc1ccccc1)C(=O)N[C@@H](CC(N)=O)C(=O)N[C@H](C(=O)N1CCC[C@H]1C(=O)N[C@@H](Cc1ccccc1)C(=O)N[C@H](C(=O)N[C@@H](Cc1ccccc1)C(=O)O)C(C)C)[C@@H](C)O` [3102.1212] (H-LEFNTPFVF-OH) registered an IC50 of 10 nM. Under `CSCC[C@H](NC(=O)[C@@H](NC(=O)[C@H](CO)NC(=O)[C@@H](NC(=O)[C@H](Cc1ccc(O)cc1)NC(=O)[C@@H](NC(=O)[C@H](Cc1ccccc1)NC(=O)[C@H](CCCCN)NC(=O)[C@@H](N)CO)C(C)C)C(C)C)C(C)C)C(=O)O` [3102.1213] (H-SKFVYVSVM-OH) stands 1.6 nM; under `CC[C@H](C)[C@H](N)C(=O)N[C@@H](CC(C)C)C(=O)N[C@@H](C)C(=O)N1CCC[C@H]1C(=O)N[C@@H](CC(N)=O)C(=O)N1CCC[C@H]1C(=O)N[C@@H](CC(N)=O)C(=O)N[C@@H](CCCNC(=N)N)C(=O)N[C@@H](Cc1ccccc1)C(=O)O` [3102.1221] (H-ILAPNPNRF-OH), 26 nM. Next, `CC[C@H](C)[C@H](NC(=O)[C@H](CO)NC(=O)[C@H](C)NC(=O)[C@H](Cc1ccccc1)NC(=O)[C@H](CO)NC(=O)CNC(=O)[C@H](CO)NC(=O)[C@@H](N)Cc1ccccc1)C(=O)N[C@@H](Cc1ccccc1)C(=O)O` [3102.1222] (H-FSGSFASIF-OH): 0.32 nM; `CSCC[C@H](NC(=O)[C@@H](N)CS)C(=O)N[C@@H](CO)C(=O)N[C@@H](CC(N)=O)C(=O)N[C@@H](CO)C(=O)N[C@@H](CCCNC(=N)N)C(=O)N[C@@H](CC(C)C)C(=O)N[C@@H](CO)C(=O)N[C@@H](Cc1ccccc1)C(=O)O` [3102.1225] (H-CMSNSRLSF-OH): 1 nM.

With `CC[C@H](C)[C@H](N)C(=O)N[C@@H](CO)C(=O)N[C@H](C(=O)N[C@@H](Cc1ccc(O)cc1)C(=O)N1CCC[C@H]1C(=O)NCC(=O)N[C@@H](CC(N)=O)C(=O)N[C@H](C(=O)N[C@@H](Cc1ccccc1)C(=O)O)[C@@H](C)O)[C@@H](C)O` [3102.1229] (H-ISTYPGNTF-OH), the IC50 turned out to be 0.48 nM. `CC(C)C[C@H](NC(=O)[C@H](CO)NC(=O)[C@H](CC(C)C)NC(=O)CNC(=O)[C@H](CS)NC(=O)[C@H](CO)NC(=O)[C@H](Cc1ccccc1)NC(=O)[C@H](CCCCN)NC(=O)[C@@H](N)Cc1ccc(O)cc1)C(=O)O` [3102.1230] (H-YKFSCGLSL-OH) gave an IC50 of 0.13 nM. This IC50 lies about 3.7-fold lower than the previous one. Under `CC(C)C[C@H](NC(=O)[C@H](Cc1ccc(O)cc1)NC(=O)[C@H](CCC(N)=O)NC(=O)[C@H](Cc1ccccc1)NC(=O)[C@H](CCC(N)=O)NC(=O)[C@@H]1CCCN1C(=O)[C@H](CCC(N)=O)NC(=O)[C@H](CCC(N)=O)NC(=O)[C@@H](N)Cc1ccccc1)C(=O)O` [3102.1233] (H-FQQPQFQYL-OH) stands 23 nM; under `CC[C@H](C)[C@H](NC(=O)[C@@H](NC(=O)[C@H](CC(C)C)NC(=O)[C@H](CCSC)NC(=O)[C@H](CCCCN)NC(=O)[C@@H](N)CC(N)=O)[C@@H](C)O)C(=O)N[C@H](C(=O)N[C@@H](CO)C(=O)N[C@@H](Cc1ccccc1)C(=O)O)[C@@H](C)O` [3102.1234] (H-NKMLTITSF-OH), 1.4 nM. In turn, `C[C@H](NC(=O)[C@@H](N)CCCNC(=N)N)C(=O)N[C@@H](CO)C(=O)N[C@@H](CO)C(=O)NCC(=O)N[C@@H](CC(=O)O)C(=O)N[C@@H](CO)C(=O)N[C@@H](CO)C(=O)N[C@@H](Cc1ccccc1)C(=O)O` [3102.1236] (H-RASSGDSSF-OH) returned an IC50 of 21 nM. This IC50 lies about 15-fold higher than the previous one. Next, `CC(C)C[C@H](NC(=O)[C@@H](NC(=O)[C@H](CCCNC(=N)N)NC(=O)[C@H](CC(N)=O)NC(=O)[C@H](CC(N)=O)NC(=O)[C@H](CCCCN)NC(=O)[C@@H](N)CCCCN)C(C)C)C(=O)N[C@@H](CS)C(=O)N[C@@H](Cc1ccccc1)C(=O)O` [3102.1237] (H-KKNNRVLCF-OH): 1.6 nM; `CC[C@H](C)[C@H](N)C(=O)N[C@@H](CCCCN)C(=O)N[C@@H](CCCNC(=N)N)C(=O)N[C@H](C(=O)N[C@@H](CO)C(=O)N[C@@H](CO)C(=O)N[C@@H](CO)C(=O)N[C@@H](CC(=O)O)C(=O)N[C@@H](Cc1ccccc1)C(=O)O)C(C)C` [3102.1239] (H-IKRVSSSDF-OH): 1.8 nM.
